# Laboratory results from patent US9193722B2, “Tri-cyclic pyrazolopyridine kinase inhibitors” (Vertex Pharmaceuticals Incorporated, priority 2008, dated 2015).
# Assays:
# Type in all cases: biochemical
# [1] = target: PKC alpha kinase (Homo sapiens, UniProt P17252); assay: PKC alpha kinase inhibition, coupled-enzyme (NADH absorbance) assay, Ki; details: 130 μM ATP, 4.5 nM PKC alpha kinase, 30° C.
# Description: (§1) An assay buffer solution was prepared which consisted of 100 mM HEPES (pH 7.5), 10 mM MgCl2, 25 mM NaCl, 0.1 mM EDTA, 100 μM CaCl2 and 0.01% Brij. […] To 16 μL of this enzyme buffer, in a 384 well plate, was added 1 μL of VRT stock solution in DMSO. The mixture was allowed to equilibrate for 10 mins at 30° C. The enzyme reaction was initiated by the addition of 16 μL stock ATP solution prepared in assay buffer to a final assay concentration of 130 μM. Initial rate data was determined from the rate of change of absorbance at 340 nm (corresponding to stoichiometric consumption of NADH) using a Molecular Devices Spectramax plate reader (Sunnyvale, Calif.) over 15 mins at 30° C. […] Ki values were calculated from initial rate data by non-linear regression using the Prism software package (Prism 4.0a, Graphpad Software, San Diego, Calif.).
# [2] = target: PKC theta kinase (Homo sapiens, UniProt Q04759); assay: PKC theta kinase inhibition, coupled-enzyme (NADH absorbance) assay, Ki; details: 240 μM ATP, 18 nM PKC theta kinase, 30° C.
# Description: An assay buffer solution was prepared which consisted of 100 mM HEPES (pH 7.5), 10 mM MgCl2, 25 mM NaCl, 0.1 mM EDTA and 0.01% Brij. […] To 60 μL of this enzyme buffer, in a 384 well plate, was added 2 μL of VRT stock solution in DMSO. The mixture was allowed to equilibrate for 10 mins at 30° C. […] Ki values were calculated from initial rate data by non-linear regression using the Prism software package (Prism 4.0a, Graphpad Software, San Diego, Calif.).
# [3] = target: PKC delta kinase (Homo sapiens, UniProt Q05655); assay: PKC delta kinase inhibition, coupled-enzyme (NADH absorbance) assay, Ki; details: 150 μM ATP, 46 nM PKC delta kinase, 30° C.; read-out: Ki PKC delta
# Description: as §1, with “EDTA” for “EDTA, 100 μM CaCl2”, “150” for “130”
# Chain of PKC theta kinase (Q04759 whole entry): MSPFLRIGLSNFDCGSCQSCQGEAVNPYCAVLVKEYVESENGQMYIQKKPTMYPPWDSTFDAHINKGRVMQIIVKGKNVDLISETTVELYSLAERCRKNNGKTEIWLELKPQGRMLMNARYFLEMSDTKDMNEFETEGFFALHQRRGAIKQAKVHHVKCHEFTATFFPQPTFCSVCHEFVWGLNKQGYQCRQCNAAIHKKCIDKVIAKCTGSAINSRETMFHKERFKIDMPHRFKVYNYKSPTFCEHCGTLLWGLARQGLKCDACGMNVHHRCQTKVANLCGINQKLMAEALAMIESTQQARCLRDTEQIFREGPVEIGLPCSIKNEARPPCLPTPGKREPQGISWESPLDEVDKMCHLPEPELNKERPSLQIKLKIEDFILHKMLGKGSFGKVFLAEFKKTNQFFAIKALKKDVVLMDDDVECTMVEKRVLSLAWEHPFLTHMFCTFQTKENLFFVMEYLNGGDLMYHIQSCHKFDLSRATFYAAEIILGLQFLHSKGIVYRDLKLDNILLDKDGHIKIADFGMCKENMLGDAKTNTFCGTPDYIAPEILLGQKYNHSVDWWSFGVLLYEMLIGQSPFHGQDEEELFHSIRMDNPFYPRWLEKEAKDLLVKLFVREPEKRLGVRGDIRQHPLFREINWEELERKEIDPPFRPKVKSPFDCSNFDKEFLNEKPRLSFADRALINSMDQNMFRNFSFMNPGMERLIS
# Chain of PKC delta kinase (Q05655 whole entry): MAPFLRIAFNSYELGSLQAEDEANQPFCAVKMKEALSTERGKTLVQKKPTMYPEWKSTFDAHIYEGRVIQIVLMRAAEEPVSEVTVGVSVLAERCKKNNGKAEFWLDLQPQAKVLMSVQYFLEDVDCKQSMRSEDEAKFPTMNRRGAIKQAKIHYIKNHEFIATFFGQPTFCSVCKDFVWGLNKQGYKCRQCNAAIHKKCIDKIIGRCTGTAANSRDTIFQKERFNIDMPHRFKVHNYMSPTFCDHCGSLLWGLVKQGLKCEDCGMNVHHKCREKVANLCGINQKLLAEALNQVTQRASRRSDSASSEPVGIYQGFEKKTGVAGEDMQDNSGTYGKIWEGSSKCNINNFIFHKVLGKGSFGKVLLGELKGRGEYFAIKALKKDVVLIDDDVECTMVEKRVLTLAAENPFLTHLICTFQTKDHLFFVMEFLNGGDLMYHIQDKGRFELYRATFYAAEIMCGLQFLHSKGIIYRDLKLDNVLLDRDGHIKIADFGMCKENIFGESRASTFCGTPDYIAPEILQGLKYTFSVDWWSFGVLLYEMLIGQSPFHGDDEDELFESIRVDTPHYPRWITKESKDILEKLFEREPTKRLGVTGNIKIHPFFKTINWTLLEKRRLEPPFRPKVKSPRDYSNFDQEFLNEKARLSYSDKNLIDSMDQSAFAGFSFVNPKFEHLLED
Compound,Ki [1] [nM],Ki [2] [nM],Ki [3] [nM]
Cc1cc(-c2n[nH]c3ncccc23)nc(N2CCN[C@@H](CC(C)C)C2)c1 [Compound 56],> 1250,< 500,< 2800
C=C(F)c1cc(-c2n[nH]c3ncccc23)nc(N2CCC(N)CC2)c1 [Compound 106],> 1250,< 500,> 1250
C[C@@H]1CNCCN1c1cccc(-c2n[nH]c3ncccc23)n1 [Compound 31],> 1250,< 500,< 2800
CC(C)CC1(CO)CN(c2ccc(C(F)(F)F)c(-c3n[nH]c4ncccc34)n2)CCC1N (stereo not drawn) [Compound 411],< 2800,< 500,< 2800
c1cc(-c2n[nH]c3ncccc23)nc(C2CCNCC2)c1 [Compound 159],< 2800,< 500,< 500
CC(C)C[C@@H]1CN(c2cccc(-c3n[nH]c4ncccc34)n2)CC[C@@H]1N [Compound 169],< 500,< 50,< 50
C[C@@H]1CN(c2ccc(C(F)(F)F)c(-c3n[nH]c4ncccc34)n2)CCN1 [Compound 117],> 1250,< 500,> 1250
CCCC1(C)CN(c2ccc(C(F)(F)F)c(-c3n[nH]c4ncccc34)n2)CCC1N (stereo not drawn) [Compound 435],< 500,< 50,< 500
CC(C)C[C@H]1CN(c2ccc(C(F)(F)F)c(-c3n[nH]c4ncccc34)n2)CC[C@H]1O [Compound 91],> 1250,< 500,> 2000
NC1CCN(c2cccc(-c3n[nH]c4ncccc34)n2)CC1 [Compound 61],> 1250,< 500,< 2800
"CC(C)C[C@H]1CN(c2ccc(C(F)(F)F)c(-c3n[nH]c4ncccc34)n2)CCN1 [Compound 4, (S)-3-(6-(3-isobutylpiperazin-1-yl)-3-(trifluoromethyl)pyridin-2-yl)-1H-pyrazolo[3,4-b]pyridine]",> 1250,< 50,> 1250
COC(C)(C)CC1CN(c2cccc(-c3n[nH]c4ncccc34)n2)CCN1 (stereo not drawn) [Compound 101],> 1250,< 50,> 1250
CC(C)[C@@](C)(O)[C@@H]1CN(c2nc(-c3n[nH]c4ncccc34)c(F)cc2F)CCN1 [Compound 445],< 500,< 1,< 50
Cc1cccc(C2CN(c3cccc(-c4n[nH]c5ncccc45)n3)CCN2)c1 (stereo not drawn) [Compound 16],< 2800,< 500,> 2000
Clc1cccc(C2CN(c3cccc(-c4n[nH]c5ncccc45)n3)CCN2)c1 (stereo not drawn) [Compound 18],< 2800,< 50,< 2800
Cc1cc(-c2n[nH]c3ncccc23)nc(N2CCC(N)CC2)c1 [Compound 107],> 1250,< 500,> 1250
NCC1CCCN(c2cccc(-c3n[nH]c4ncccc34)n2)C1 (stereo not drawn) [Compound 74],< 2800,< 500,< 500
CC(C)C(N)[C@H]1CCCN(c2ccc(F)c(-c3n[nH]c4ncccc34)n2)C1 (stereo partly drawn) [Compound 270],> 1250,< 50,> 1250
CC(C)C(C)(O)C1CN(c2ccc(F)c(-c3n[nH]c4ncccc34)n2)CCN1C(=O)OC(C)(C)C (stereo not drawn) [Compound 424],> 1250,> 700,> 1250
CC(C)CC1(C)C=CCN(c2ccc(C(F)(F)F)c(-c3n[nH]c4ncccc34)n2)C1 (stereo not drawn) [Compound 396],> 1250,> 700,> 1250
CC(C)C[C@H]1CN(c2nc(-c3n[nH]c4ncccc34)ccc2F)CCN1 [Compound 131],< 2800,< 50,< 2800
CC(C)CC1(CN)CCN(c2ccc(C(F)(F)F)c(-c3n[nH]c4ncccc34)n2)CC1 [Compound 466],> 1250,< 500,> 1250
COC(C)(C)CC1CN(c2ccc(C(F)(F)F)c(-c3n[nH]c4ncccc34)n2)CCN1 (stereo not drawn) [Compound 100],> 1250,< 500,> 1250
